Test results reported in ChEMBL document CHEMBL1201862, “PubChem BioAssay data set” (2004).
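Briefly, cells in 96-well plates were exposed to five compound concentrations for 48 h, and endpoints were estimated by linear interpolation. GI50: concentration for 50% inhibition of growth.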 Calls of active or inactive are those of the source. Cut-off read from the data, not from the text of the source: active = GI50 up to about 1.1 µM and inactive = higher.

Legend:
Test in all cases: growth of human tumour cells (NCI), 48 h
[1] = test system: RPMI-8226
[2] = test system: OVCAR-8
[3] = test system: MDA-MB-435
[4] = test system: MOLT-4
[5] = test system: HL-60
[6] = test system: KM12
[7] = test system: A498
[8] = test system: TK-10
[9] = test system: OVCAR-3
[10] = test system: CAKI-1
[11] = test system: SK-MEL-28
[12] = test system: HCT-116
[13] = test system: OVCAR-5
[14] = test system: CCRF-CEM
[15] = test system: OVCAR-4
[16] = test system: HCC 2998
[17] = test system: PC-3
[18] = test system: Malme-3M
[19] = test system: COLO 205
[20] = test system: SF-268

SMILES	GI50 [1]	GI50 [2]	GI50 [3]	GI50 [4]	GI50 [5]	GI50 [6]	GI50 [7]	GI50 [8]	GI50 [9]	GI50 [10]	GI50 [11]	GI50 [12]	GI50 [13]	GI50 [14]	GI50 [15]	GI50 [16]	GI50 [17]	GI50 [18]	GI50 [19]	GI50 [20]
Cc1cc(C)c(-n2c(-c3ccc(Br)cc3)cs/c2=N\N=C2C=C(C(C)(C)C)C(=O)C(C(C)(C)C)=C2)c(C)c1	> 100 µM (inactive)	> 100 µM (inactive)	> 100 µM (inactive)	> 100 µM (inactive)	> 100 µM (inactive)	> 100 µM (inactive)	31.3 µM (inactive)	> 71.8 µM (inactive)	> 100 µM (inactive)	> 100 µM (inactive)	> 100 µM (inactive)	> 76 µM (inactive)	> 100 µM (inactive)	> 100 µM (inactive)	> 100 µM (inactive)	> 100 µM (inactive)	> 100 µM (inactive)	> 100 µM (inactive)	> 100 µM (inactive)	69.8 µM (inactive)
C=C1C(=O)OC2CC1C(OC(=O)/C=C/c1ccccc1)C/C(C)=C/CC/C(C)=C/CCC2(C)O (stereo not given)	0.433 µM (active)	1.75 µM (inactive)	1.46 µM (inactive)	0.409 µM (active)	0.308 µM (active)	1.71 µM (inactive)	1.91 µM (inactive)	1.65 µM (inactive)	1.52 µM (inactive)	1.46 µM (inactive)	2.3 µM (inactive)	1.24 µM (inactive)	1.75 µM (inactive)	0.372 µM (active)	0.82 µM (active)	1.58 µM (inactive)	1.63 µM (inactive)	2 µM (inactive)	3.41 µM (inactive)	1.68 µM (inactive)
Clc1cc(OC2C3CC4CC(C3)CC2C4)nc(Cl)n1 (stereo not given)	21 µM (inactive)	26.1 µM (inactive)	17.4 µM (inactive)	16.9 µM (inactive)	3.08 µM (inactive)	20.8 µM (inactive)	19.1 µM (inactive)	30.7 µM (inactive)	18.1 µM (inactive)	0.723 µM (active)	15 µM (inactive)	14.3 µM (inactive)	21.3 µM (inactive)	16.7 µM (inactive)	17.1 µM (inactive)	1.96 µM (inactive)	19.2 µM (inactive)	14.9 µM (inactive)	18.6 µM (inactive)	19.2 µM (inactive)
